Source: patent US20230322846A9, “NEUROACTIVE STEROIDS AND THEIR METHODS OF USE” (SAGE THERAPEUTICS, INC., priority 2018, published 2023)

biological target: [35S]-TBPS binding, rat brain cortical membranes; assay: Steroid inhibition of [35S]-TBPS binding; details: 3 nM [35S]-TBPS, in the presence of 5 mM GABA
Method in brief: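 In the presence of […], compounds (DMSO 0.5% final) competed with 3 nM [35S]-TBPS for Sprague-Dawley rat cortical membranes, pH 7.4 phosphate buffer, 90 min, room temperature. Filtration and scintillation counting; specific binding defined by […]; IC50 and maximal inhibition fitted per experiment, averaged as mean ± SEM.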

| Structure (SMILES) | IC50 [nM] |
| --- | --- |
| CCOC[C@@]1(O)CC[C@H]2[C@H](CC[C@@H]3[C@@H]2CC[C@]2(C)[C@@H]([C@H](C)Cn4nccn4)CC[C@@H]32)C1 [Example 265, (3R,5R,8R,9R,10S,13S,14S,17R)-17-((S)-1-(2H-1,2,3-triazol-2-yl)propan-2-yl)-3-(ethoxymethyl)-13-methylhexadecahydro-1H-cyclopenta[a]phenanthren-3-ol] | 100 to 1000 |
| CCC[C@@]1(O)CC[C@@]2(C)[C@H](CC[C@@H]3[C@@H]2CC[C@]2(C)[C@@H]([C@H](C)Cn4nnnc4C)CC[C@@H]32)C1 [Example 316, (3R,5R,8R,9S,10S,13S,14S,17R)-10,13-dimethyl-17-((S)-1-(5-methyl-1H-tetrazol-1-yl)propan-2-yl)-3-propylhexadecahydro-1H-cyclopenta[a]phenanthren-3-ol] | < 100 |
| COC[C@@]1(O)CC[C@H]2[C@H](CC[C@@H]3[C@@H]2CC[C@]2(C)[C@@H]([C@@H](C)NS(=O)(=O)c4cccc(C#N)n4)CC[C@@H]32)C1 [Example 75] | < 100 |
| COC[C@@]1(O)CC[C@H]2[C@H](CC[C@@H]3[C@@H]2CC[C@]2(C)[C@@H](CCn4nccn4)CC[C@@H]32)C1 [Example 49, (3R,5R,8R,9R,10S,13R,14S,17R)-17-(2-(2H-1,2,3-triazol-2-yl)ethyl)-3-(methoxymethyl)-13-methylhexadecahydro-1H-cyclopenta[a]phenanthren-3-ol] | < 100 |
| CC[C@@]1(O)CC[C@H]2[C@H](CC[C@@H]3[C@@H]2CC[C@]2(C)[C@@H]([C@H](C)Cn4ccc(C#N)n4)CC[C@@H]32)C1 [Example 271, 1-((S)-2-((3R,5R,8R,9R,10S,13S,14S,17R)-3-ethyl-3-hydroxy-13-methylhexadecahydro-1H-cyclopenta[a]phenanthren-17-yl)propyl)-1H-pyrazole-3-carbonitrile] | < 100 |
| COC[C@@]1(O)CC[C@H]2[C@H](CC[C@@H]3[C@@H]2CC[C@]2(C)[C@@H]([C@@H](C)NC(=O)c4cc(C)nn4C)CC[C@@H]32)C1 [Example 118] | 100 to 1000 |
| C[C@@H](NS(=O)(=O)c1ccccc1)[C@H]1CC[C@H]2[C@@H]3CC[C@@H]4C[C@](C)(O)CC[C@@H]4[C@H]3CC[C@]12C [Example 18, N—((R)-1-((3R,5R,8R,9R,10S,13S,14S,17S)-3-hydroxy-3,13-dimethylhexadecahydro-1H-cyclopenta[a]phenanthren-17-yl)ethyl)benzenesulfonamide] | < 100 |
| CC(C)[C@@]1(O)CC[C@H]2[C@H](CC[C@@H]3[C@@H]2CC[C@]2(C)[C@@H]([C@H](C)Cn4cc(C#N)cn4)CC[C@@H]32)C1 [Example 344, 1-((S)-2-((3R,5R,8R,9R,10S,13S,14S,17R)-3-hydroxy-3-isopropyl-13-methylhexadecahydro-1H-cyclopenta[a]phenanthren-17-yl)propyl)-1H-pyrazole-4-carbonitrile] | ≥ 10000 |
| COC[C@@]1(O)CC[C@H]2[C@H](CC[C@@H]3[C@@H]2CC[C@]2(C)[C@@H]([C@@H](C)n4ncc(C#N)c4N)CC[C@@H]32)C1 [Example 152, 5-amino-1-((R)-1-((3R,5R,8R,9R,10S,13S,14S,17S)-3-hydroxy-3-(methoxymethyl)-13-methylhexadecahydro-1H-cyclopenta[a]phenanthren-17-yl)ethyl)-1H-pyrazole-4-carbonitrile] | 1000 to 10000 |
| COC[C@@]1(O)CC[C@H]2[C@@H](CC[C@@H]3[C@@H]2CC[C@]2(C)[C@@H](CCn4ccnn4)CC[C@@H]32)C1 [Example 298, (3R,5S,8R,9R,10S,13R,14S,17R)-17-(2-(1H-1,2,3-triazol-1-yl)ethyl)-3-(methoxymethyl)-13-methylhexadecahydro-1H-cyclopenta[a]phenanthren-3-ol] | < 100 |
| CC[C@@]1(O)CC[C@H]2[C@@H](CC[C@@H]3[C@@H]2CC[C@]2(C)[C@@H]([C@H](C)Cn4nnnc4C)CC[C@@H]32)C1 [Example 336, (3R,5S,8R,9R,10S,13S,14S,17R)-3-ethyl-13-methyl-17-((S)-1-(5-methyl-1H-tetrazol-1-yl)propan-2-yl)hexadecahydro-1H-cyclopenta[a]phenanthren-3-ol] | ≥ 10000 |
| CCC[C@@]1(O)CC[C@@]2(C)[C@H](CC[C@@H]3[C@@H]2CC[C@]2(C)[C@@H]([C@@H](C)Cn4cc(C#N)cn4)CC[C@@H]32)C1 [Example 307, 1-((R)-2-((3R,5R,8R,9S,10S,13S,14S,17R)-3-hydroxy-10,13-dimethyl-3-propylhexadecahydro-1H-cyclopenta[a]phenanthren-17-yl)propyl)-1H-pyrazole-4-carbonitrile] | < 100 |
| CCOC[C@@]1(O)CC[C@H]2[C@H](CC[C@@H]3[C@@H]2CC[C@]2(C)[C@@H]([C@@H](C)NC(=O)c4ccccc4F)CC[C@@H]32)C1 [Example 42, N—((R)-1-((3R,5R,8R,9R,10S,13S,14S,17S)-3-(ethoxymethyl)-3-hydroxy-13-methylhexadecahydro-1H-cyclopenta[a]phenanthren-17-yl)ethyl)-2-fluorobenzamide] | 100 to 1000 |
| C[C@H](NC(=O)c1ccc(C#N)cn1)[C@H]1CC[C@H]2[C@@H]3CC[C@@H]4C[C@](C)(O)CC[C@@H]4[C@H]3CC[C@]12C [Example 121] | 1000 to 10000 |
| COC[C@@]1(O)CC[C@H]2[C@@H](CC[C@@H]3[C@@H]2CC[C@]2(C)[C@@H]([C@H](C)Cn4nnc(C)n4)CC[C@@H]32)C1 [Example 54, (3R,5S,8R,9R,10S,13S,14S,17R)-3-(methoxymethyl)-13-methyl-17-((S)-1-(5-methyl-2H-tetrazol-2-yl)propan-2-yl)hexadecahydro-1H-cyclopenta[a]phenanthren-3-ol] | 100 to 1000 |
| CCOC[C@@]1(O)CC[C@@]2(C)[C@H](CC[C@@H]3[C@@H]2CC[C@]2(C)[C@@H]([C@@H](C)N[C@H](C)c4ccccc4)CC[C@@H]32)C1 [Example 207] | 1000 to 10000 |
| COC[C@@]1(O)CC[C@H]2[C@H](CC[C@@H]3[C@@H]2CC[C@]2(C)[C@@H]([C@@H](C)Nc4ccc(C#N)cc4)CC[C@@H]32)C1 [Example 256] | < 100 |
| C[C@@H](NC(=O)c1cccc(C#N)c1)[C@H]1CC[C@H]2[C@@H]3CC[C@@H]4C[C@](C)(O)CC[C@@H]4[C@H]3CC[C@]12C [Example 109] | < 100 |
| CC[C@@]1(O)CC[C@H]2[C@@H](CC[C@@H]3[C@@H]2CC[C@]2(C)[C@@H]([C@H](C)Cn4nnc(C)n4)CC[C@@H]32)C1 [Example 334, (3R,5S,8R,9R,10S,13S,14S,17R)-3-ethyl-13-methyl-17-((S)-1-(5-methyl-2H-tetrazol-2-yl)propan-2-yl)hexadecahydro-1H-cyclopenta[a]phenanthren-3-ol] | ≥ 10000 |
| CCC[C@@]1(O)CC[C@@]2(COC)[C@H](CC[C@H]3[C@@H]4CC[C@H]([C@H](C)Cn5nnnc5C)[C@@]4(C)CC[C@@H]32)C1 [Example 322, (3R,5R,8S,9S,10R,13S,14S,17R)-10-(methoxymethyl)-13-methyl-17-((S)-1-(5-methyl-1H-tetrazol-1-yl)propan-2-yl)-3-propylhexadecahydro-1H-cyclopenta[a]phenanthren-3-ol] | < 100 |
| COC[C@@]1(O)CC[C@H]2[C@H](CC[C@@H]3[C@@H]2CC[C@]2(C)[C@@H](CCn4nccc4C#N)CC[C@@H]32)C1 [Example 88, 1-(2-((3R,5R,8R,9R,10S,13R,14S,17R)-3-hydroxy-3-(methoxymethyl)-13-methylhexadecahydro-1H-cyclopenta[a]phenanthren-17-yl)ethyl)-1H-pyrazole-5-carbonitrile] | < 100 |
| C[C@@]1(O)CC[C@H]2[C@H](CC[C@@H]3[C@@H]2CC[C@]2(C)[C@@H](CN4C(=O)CCC[C@H]4c4ccccc4)CC[C@@H]32)C1 [Example 14, (S)-1-(((3R,5R,8R,9R,10S,13S,14S,17S)-3-hydroxy-3,13-dimethylhexadecahydro-1H-cyclopenta[a]phenanthren-17-yl)methyl)-6-phenylpiperidin-2-one] | 100 to 1000 |
| COC[C@@]1(O)CC[C@H]2[C@H](CC[C@@H]3[C@@H]2CC[C@]2(C)[C@@H]([C@H](C)NC(=O)c4cc(C)nn4C)CC[C@@H]32)C1 [Example 119] | 1000 to 10000 |
| CCOC[C@@]1(O)CC[C@@]2(C)[C@H](CC[C@@H]3[C@@H]2CC[C@]2(C)[C@@H]([C@H](CC)Nc4ccc(C#N)nc4)CC[C@@H]32)C1 [Example 494, 5-(((S)-1-((3R,5R,8R,9S,10S,13S,14S,17S)-3-(ethoxymethyl)-3-hydroxy-10,13-dimethylhexadecahydro-1H-cyclopenta[a]phenanthren-17-yl)propyl)amino)picolinonitrile] | 100 to 1000 |
| CCOC[C@@]1(O)CC[C@H]2[C@H](CC[C@@H]3[C@@H]2CC[C@]2(C)[C@@H]([C@@H](CC)Cn4ccc(C#N)n4)CC[C@@H]32)C1 [Example 498, 1-((R)-2-((3R,5R,8R,9R,10S,13S,14S,17R)-3-(ethoxymethyl)-3-hydroxy-13-methylhexadecahydro-1H-cyclopenta[a]phenanthren-17-yl)butyl)-1H-pyrazole-3-carbonitrile] | 100 to 1000 |
| C[C@H](NC(=O)c1cccnc1)[C@H]1CC[C@H]2[C@@H]3CC[C@@H]4C[C@](C)(O)CC[C@@H]4[C@H]3CC[C@]12C [Example 30, N—((S)-1-((3R,5R,8R,9R,10S,13S,14S,17S)-3-hydroxy-3,13-dimethylhexadecahydro-1H-cyclopenta[a]phenanthren-17-yl)ethyl)nicotinamide] | 1000 to 10000 |
| COC[C@@]1(O)CC[C@H]2[C@H](CC[C@@H]3[C@@H]2CC[C@]2(C)[C@@H]([C@H](C)NC(=O)c4ccc(OC(F)(F)F)cc4)CC[C@@H]32)C1 [Example 112] | 100 to 1000 |
